Reference: patent US8597640B2, “Over-the-counter vitamin/nutriceutical formulation that provides neuroprotection and maintains or improves cognitive performance in alzheimer's disease and normal aging” (University of Massachusetts Lowell, priority 2007, dated 2013)
Entries after “also recorded” stand apart in the source; their conditions may differ.

What was measured:
[1] = 12 months, Aisen et al. 2003; cited from earlier work
[2] = 12 months, Aisen et al. 2003; cited from earlier work; remark: listed apart in the source
normal C57B/6 mice = details: SAM administered in isolation; prior studies (Chan et al. 2007); cited from earlier work
gamma secretase = assay: Gamma secretase activity in brain homogenates (fluorescent kit); format: in vivo, mouse
Description: (§1) Adult (9-12 months of age) C57B/6 mice that either express (“normal”) or lack murine ApoE (ApoE−/− mice) received a diet (“AIN-76”; Purina/Mother Hubbard, Inc.) either lacking folate and vitamin E (defined as the “deficient diet”) or supplemented with folic acid (4 mg/kg), and vitamin E (50 IU/kg total diet wet weight) (defined as the “complete diet”). The deficient diet was also supplemented in all cases with iron ([…] total diet) as a pro-oxidant (Mihalick et al., (2004) Neuromol. Med. 4:197-202; Shea and Rogers, (2002) Mol. Brain. Res. 108:1-6). Additional groups of mice maintained on each diet received SAM for the entire month (100 mg/kg diet; Chan et al., (2007) in press; Tchantchou et al., (2005) J. Alzheimers Dis. 7:135-138). Following 1 month of maintenance on these diets, mice were sacrificed by cervical dislocation, and the frontal portion of the brain (encompassing cortex and hippocampus) was immediately removed.
Gamma secretase activity was quantified by fluorescent spectroscopy using a gamma secretase activity kit according to the manufacturer's instructions (R&D Systems, Minneapolis, MN), using the APP peptide GVVIATVIV (SEQ ID NO: 5) conjugated to the reporter molecules EDANS and DABCYL and measuring the cleavage-dependent release of signal at 495 nm.

[3] = system: mice lacking one or both murine MTHFR alleles; details: SAM supplementation; Chan et al. (2007) in press; cited from earlier work
Abeta = Abeta levels in murine brain by immunoblot; format: in vivo, mouse; details: normal and ApoE−/− mice
Description: as §1
A portion (40-50 mg) of the above cortical/hippocampal sample was homogenized with 4 volumes of Tris-saline (50 mM Tris HCl, pH 7.4, 150 mM NaCl containing 1 mM EGTA, 0.5 mM diisopropyl fluorophosphate, 0.5 mM phenylmethylsulfonyl fluoride, 1 μg/ml N-p-tosyl-L-lysine chloromethylketone, 0.1 μg/ml pepstatin, 1 μg/ml antipain, and 1 μg/ml leupeptin). The homogenate was centrifuged at […] for 50 minutes at 4° C. […]

[4] = system: presenilin-1 (PS-1) expression; assay: PS-1 expression by RT-PCR in murine brain; format: in vivo, mouse; details: normal and ApoE−/− mice, deficient diet + SAM 100 mg/kg diet, 1 month
Description: Adult (9-12 months of age) C57B/6 mice that either express (“normal”) or lack murine ApoE (ApoE−/− mice) received a diet (“AIN-76”; Purina/Mother Hubbard, Inc.) either lacking folate and vitamin E (defined as the “deficient diet”) or supplemented with folic acid (4 mg/kg), and vitamin E (50 IU/kg total diet wet weight) (defined as the “complete diet”). The deficient diet was also supplemented in all cases with iron ([…] total diet) as a pro-oxidant (Mihalick et al., (2004) Neuromol. Med. 4:197-202; Shea and Rogers, (2002) Mol. Brain. Res. 108:1-6). Additional groups of mice maintained on each diet received SAM for the entire month (100 mg/kg diet; Chan et al., (2007) in press; Tchantchou et al., (2005) J. Alzheimers Dis. 7:135-138). […]
To analyze PS-1 expression, total mRNA was extracted from the above homogenate using an RNA isolation kit and stored at −20° C. as described (Chan and Shea, (2006) J. Alzheimers Dis. 9:399-405). Transcription of murine PS-1 was analyzed using a set of primers 5′-[…]-3′ (SEQ ID NO: 1) and 5′-[…]-3′ (SEQ ID NO: 2) respectively, which yielded a product of 557 base pairs (bp) of the murine PS-1 gene. […] Gels were visualized under UV using a Gel Doc 2000 machine from BioRad and analyzed using Quantity One software. […]

[5] = normal mice, deficient diet + SAM

Row | Structure (SMILES) | decline in ADCS-ADL [1] | performance on the NPI [2] | performance of normal mice (normal C57B/6 mice) | effect on gamma-secretase activity (gamma secretase; ApoE−/− mice, SAM supplementation, FIG. 22) | gamma-secretase activity, less than levels on complete diet (gamma secretase; ApoE−/− mice, deficient diet + SAM) | effect on deficient-diet-induced increase in gamma-secretase activity (gamma secretase; [5]) | gamma-secretase activity relative to complete diet (gamma secretase; [5]) | cognitive performance [3] | effect on folate-deprivation-induced increase in Abeta levels (Abeta; folate-deficient diet + SAM) | Abeta levels, SAM in the presence of folate (Abeta; folate-supplemented diet + SAM) | effect on deficient-diet-induced increase in PS-1 expression [4]
1 | CS(=O)(=O)c1ccc(C2=C(c3ccccc3)C(=O)OC2)cc1 [rofecoxib] | nor prevented decline in ADCS-ADL | Neither naproxen nor rofecoxib statistically improved performance on the NPI | – | – | – | – | – | – | – | – | –
2 | COc1ccc2cc([C@H](C)C(=O)O)ccc2c1 [naproxen] | nor prevented decline in ADCS-ADL | Neither naproxen nor rofecoxib statistically improved performance on the NPI | – | – | – | – | – | – | – | – | –
3 | C[S+](CC[C@H](N)C(=O)O)C[C@H]1O[C@@H](n2cnc3c(N)ncnc32)[C@H](O)[C@@H]1O (stereo partly shown) [SAM, S-adenosyl methionine] | – | – | did not improve the performance of normal mice | statistically (p<0.02) reduced secretase activity | approx. 40% | attenuated by half; also recorded: reduced secretase activity in normal mice (not statistically significant) | approx. 35% | improved cognitive performance | prevented these increases; also recorded: alleviated these increases | did not alter values obtained with folate alone | prevented these increases; also recorded: prevented or attenuated these increases
